Test in all cases: Bliss excess, mean over the matrix (fraction); higher = more synergy
The test system of assay [1] is DG-75 (Burkitt's Lymphoma). The procedure, abridged:
(§1)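 Bliss excess equals the observed combination effect minus the expected value EA + EB − EA·EB, where EA and EB are the effects of each agent alone. Combination Emax is the second-highest inhibition within the matrix. Inhibition was scaled from CellTiter-Glo 2.0 luminescence, with 0 set by vehicle wells and 1 by blank wells, after 72 hours of two-drug dosing of cells plated in 1536-well plates.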

Assay [2] relates to EW-18 (Ewing's Sarcoma). The procedure, abridged:
as §1

In assay [3] the test system is EW-3 (Ewing's Sarcoma). The essentials: as §1
Assay [4] deals with H-EMC-SS (Chondrosarcoma). The procedure, abridged:
as §1

Assay [5] relates to KINGS-1 (Low Grade Glioma). The procedure, abridged:
as §1

Assay [6] concerns KLE (Endometrial Carcinoma). The procedure, abridged:
as §1

The subject of assay [7] is KP-2 (Pancreatic Carcinoma). The essentials: as §1
The test system of assay [8] is KYSE-150 (Esophageal Squamous Cell Carcinoma). The procedure, abridged: as §1
Assay [9] deals with KYSE-50 (Esophageal Squamous Cell Carcinoma). The essentials: as §1
In assay [10] the test system is MFE-319 (Endometrial Carcinoma). The essentials:
as §1

Assay [11] deals with NB7 (Neuroblastoma). The procedure, abridged: as §1
In assay [12] the test system is NCI-H1573 (Lung Adenocarcinoma). The procedure, abridged: as §1
In assay [13] the test system is NCI-H2405 (Lung Adenocarcinoma). The essentials:
as §1

Assay [14] deals with NCI-H322M (Lung Adenocarcinoma). The essentials: as §1
In assay [15] the test system is NCI-N87 (Gastric Carcinoma). The procedure, abridged:
as §1

The test system of assay [16] is NH-12 (Neuroblastoma). The procedure, abridged: as §1
The subject of assay [17] is OVISE (Ovarian Carcinoma). The essentials: as §1
Assay [18] has as its system PF-382 (T-Lymphoblastic Leukemia). The essentials: as §1
The subject of assay [19] is SCC-9 (Oral Cavity Carcinoma). The essentials:
as §1

Assay [20] relates to TGBC11TKB (Gastric Carcinoma). The procedure, abridged:
as §1

Regarding `CCc1c2c(nc3ccc(O)cc13)-c1cc3c(c(=O)n1C2)COC(=O)[C@]3(O)CC` [SN-38] + O=C(c1cc(Cc2n[nH]c(=O)c3ccccc23)ccc1F)N1CCN(C(=O)C2CC2)CC1 [Olaparib] (first compound max 0.3 µM, 7x7, partner max 10 µM), the Bliss excess in assay [1] was 0.0451; in [2], 0.034; in assay [3] it was -0.0057; in assay [4], 0.0825; in [5], 0.0161; in assay [6] it was 0.0346. For the same molecule, the Bliss excess in assay [7] is 0.0564; in [8], 0.0762; in [9] it was 0.0126; in assay [10] it was 0.0328; in assay [11], 0.0625; in [12] it was -0.0085. For the same molecule, the Bliss excess in [13] is 0.0105; in [14], 0.0495; in assay [15] it was 0.0599; in [16], -0.0089; in [17], 0.0082; in [18] it was 0.0471. For the same molecule, the figures for the Bliss excess in assay [19] and in assay [20] were 0.0207 and 0.0814, respectively.

(Values after the supplement of paper PMC11061612.)
